Measurements published in patent US20250025443A1, “COMPOUNDS AND METHODS FOR TREATING CORONA VIRUSES” (CLEAR CREEK BIO, INC., priority 2021, published 2025).

target: SARS-CoV-2 Papain-Like Protease (PLpro) (Severe acute respiratory syndrome coronavirus 2 (2019-nCoV) (SARS-CoV-2), UniProt P0DTD1); assay: biochemical; details: PLpro enzymatic fluorescence assay; class symbols; read-out: PLpro IC50

With Cc1ccc(OCC2CCN2C)cc1C(=O)NC1(c2cc(-c3ccc(F)cc3)cc3ccccc23)CC1 (stereo not shown) [Compound 518, N-(1-(3-(4-Fluorophenyl)naphthalen-1-yl)cyclopropyl)-2-methyl-5-((1-methylazetidin-2-yl)methoxy)benzamide] as the molecule, how does the IC50 read?
Its IC50 is less than 100 nM.

With CC(=O)c1ccc(-c2cc(C3(NC(=O)c4cc(OC[C@@H]5CCN5)ccc4C)CC3)c3cccnc3c2)s1 [Compound 643, (S)-N-(1-(7-(5-Acetylthiophen-2-yl)quinolin-5-yl)cyclopropyl)-5-(azetidin-2-ylmethoxy)-2-methylbenzamide] as the molecule, how does the IC50 read?
The IC50 was less than 100 nM.

With CCOc1cc(C2(NC(=O)c3cc(OCC4CCN4C)ccc3C)CC2)c2ccccc2c1 (stereo not shown) [Compound 478, N-(1-(3-Ethoxynaphthalen-1-yl)cyclopropyl)-2-methyl-5-((1-methylazetidin-2-yl)methoxy)benzamide] as the molecule, how does the IC50 read?
The IC50 was less than 100 nM.

For Cc1ncc(-c2cc(C3(NC(=O)c4cc(OC[C@@H]5CCN5C)ccc4C)CC3)c3cccnc3c2Cl)s1 [Compound 814, (S)-N-(1-(8-Chloro-7-(2-methylthiazol-5-yl)quinolin-5-yl)cyclopropyl)-2-methyl-5-((1-methylazetidin-2-yl)methoxy)benzamide], which IC50 is on record?
Its IC50 is less than 100 nM.

Cc1cc(-c2cc(C3(NC(=O)c4cc(OC[C@@H]5CCN5)ccc4C)CC3)c3cccnc3c2)n[nH]1 [Compound 635, (S)-5-(Azetidin-2-ylmethoxy)-2-methyl-N-(1-(7-(5-methyl-1H-pyrazol-3-yl)quinolin-5-yl)cyclopropyl)benzamide] was tested. Which IC50 did it give?
Its IC50 is less than 100 nM.

How did the IC50 turn out when COc1cc(C2(NC(=O)c3cc(OCC(N)C(C)C)ccc3C)CC2)c2cccnc2c1 (stereo not shown) [Compound 572, 5-(2-Amino-3-methylbutoxy)-N-(1-(7-methoxyquinolin-5-yl)cyclopropyl)-2-methylbenzamide] was run?
Its IC50 is less than 100 nM.

For Cc1ccc(OC[C@@H]2CCN2)cc1C(=O)NC1(c2cc(-c3ccn(C(F)F)n3)cc3ncccc23)CC1 [Compound 656, (S)-5-(Azetidin-2-ylmethoxy)-N-(1-(7-(1-(difluoromethyl)-1H-pyrazol-3-yl)quinolin-5-yl)cyclopropyl)-2-methylbenzamide], which IC50 is on record?
The IC50 was less than 100 nM.

How did the IC50 turn out when Cc1ccc(OC[C@@H]2CCN2)cc1C(=O)NC1(c2cc(-c3cnoc3)cc3ncccc23)CC1 [Compound 714, (S)-5-(Azetidin-2-ylmethoxy)-N-(1-(7-(isoxazol-4-yl)quinolin-5-yl)cyclopropyl)-2-methylbenzamide] was run?
The IC50 was less than 100 nM.

Cc1ccc(OC[C@@H]2CCN2)cc1C(=O)NC1(c2cc(-c3cccnc3)cc3ncccc23)CC1 [Compound 637, (S)-5-(Azetidin-2-ylmethoxy)-2-methyl-N-(1-(7-(pyridin-3-yl)quinolin-5-yl)cyclopropyl)benzamide] was tested. Which IC50 did it give?
Its IC50 is less than 100 nM.

With Cc1ccc(OC[C@@H]2CCN2C)cc1C(=O)NC1(c2cc(-c3ccc(CN[C@H]4CC[C@@H](O)C4)s3)cc3ncccc23)CC1 [Compound 751, N-(1-(7-(5-((((1S,3R)-3-Hydroxycyclopentyl)amino)methyl)thiophen-2-yl)quinolin-5-yl)cyclopropyl)-2-methyl-5-(((S)-1-methylazetidin-2-yl)methoxy)benzamide] as the molecule, how does the IC50 read?
The IC50 was less than 100 nM.

same assay, conditions: SARS-CoV-2 PLpro enzymatic fluorescence assay; read-out: PLpro IC50

How did the IC50 turn out when Cc1ccc(OCC2COCCN2)cc1C(=O)NC1(c2cccc3ccccc23)CC1 (stereo not shown) [Compound 286, 2-Methyl-5-(morpholin-3-ylmethoxy)-N-(1-(naphthalen-1-yl)cyclopropyl)benzamide] was run?
Its IC50 is less than 100 nM.

How did the IC50 turn out when Cc1ccc(OC[C@H]2C[C@@H](O)CN2C)cc1C(=O)NC1(c2cccc3ccccc23)CC1 (single isomer, unassigned) [Compound 440] was run?
The IC50 was less than 100 nM.

With Cc1ccc(OC[C@@H]2CCN2C)cc1C(=O)NC1(c2cc(N)cc3ncccc23)CC1 [Compound 729, (S)-N-(1-(7-Aminoquinolin-5-yl)cyclopropyl)-2-methyl-5-((1-methylazetidin-2-yl)methoxy)benzamide] as the molecule, how does the IC50 read?
Its IC50 is less than 100 nM.

Which IC50 does the source give for Cc1ccc(OCCN(C)C)cc1C(=O)NC1(c2ccccc2-c2ccncc2)CC1 [Compound 266, 5-(2-(Dimethylamino)ethoxy)-2-methyl-N-(1-(2-(pyridin-4-yl)phenyl)cyclopropyl)benzamide] here?
The IC50 was greater than 5000 nM.

How did the IC50 turn out when Cc1ccc(OCCN(C)C)cc1C(=O)NC1(c2cccc3cccnc23)CC1 [Compound 388, 5-(2-(Dimethylamino)ethoxy)-2-methyl-N-(1-(quinolin-8-yl)cyclopropyl)benzamide] was run?
The IC50 was less than 100 nM.

Which IC50 does the source give for COCCN1CCC1COc1ccc(C)c(C(=O)NC2(c3cccc4ccccc34)CC2)c1 (stereo not shown) [Compound 348, 5-((1-(2-Methoxyethyl)azetidin-2-yl)methoxy)-2-methyl-N-(1-(naphthalen-1-yl)cyclopropyl)benzamide] here?
Its IC50 is less than 100 nM.

For CC(c1cccc2ccccc12)N1CC(CC(=O)NCc2cccc(F)c2)C1 (stereo not shown) [Compound 143, N-(3-Fluorobenzyl)-2-(1-(1-(naphthalen-1-yl)ethyl)azetidin-3-yl)acetamide], which IC50 is on record?
The IC50 was greater than 5000 nM.

How did the IC50 turn out when COc1ccnc(COc2ccc(C)c(C(=O)NC3(c4cc(OC)cc5ncccc45)CC3)c2)c1 [Compound 561, 5-((4-Methoxypyridin-2-yl)methoxy)-N-(1-(7-methoxyquinolin-5-yl)cyclopropyl)-2-methylbenzamide] was run?
The IC50 was 100 to 1000 nM.

Which IC50 does the source give for Cc1cc2cc(C3COCCN3)[nH]c2cc1C(=O)NC1(c2cccc3ccccc23)CC1 (stereo not shown) [Compound 260, 5-Methyl-2-(morpholin-3-yl)-N-(1-(naphthalen-1-yl)cyclopropyl)-1H-indole-6-carboxamide] here?
Its IC50 is 100 to 1000 nM.

For COc1cc(C2(NC(=O)c3cc(OC[C@@H]4CCN4C)c(N)cc3C)CC2)c2cccnc2c1 [Compound 597, (S)-4-Amino-N-(1-(7-methoxyquinolin-5-yl)cyclopropyl)-2-methyl-5-((1-methylazetidin-2-yl)methoxy)benzamide], which IC50 is on record?
Its IC50 is less than 100 nM.

Which IC50 does the source give for Cc1cc2cc(CNC(=O)OC(C)(C)C)[nH]c2cc1C(=O)N[C@H](C)c1cccc2ccccc12 [Compound 189, (R)-tert-Butyl((5-methyl-6-((1-(naphthalen-1-yl)ethyl)carbamoyl)-1H-indol-2-yl)methyl)carbamate] here?
The IC50 was greater than 5000 nM.

Which IC50 does the source give for “2-Methyl-5-((2-methylazetidin-2-yl)methoxy)-N-(1-(naphthalen-1-yl)cyclopropyl)benzamide [Compound 394]” here?
The IC50 was less than 100 nM.

How did the IC50 turn out when Cc1ccc(OCC2CCN2C)cc1C(=O)NC1(c2cc(N)cc3ccccc23)CC1 (stereo not shown) [Compound 496, N-(1-(3-Aminonaphthalen-1-yl)cyclopropyl)-2-methyl-5-((1-methylazetidin-2-yl)methoxy)benzamide] was run?
The IC50 was less than 100 nM.

With Cc1ccc(OCC(N)c2ccccc2)cc1C(=O)NC1(c2cccc3ccccc23)CC1 (stereo not shown) [Compound 367, 5-(2-Amino-2-phenylethoxy)-2-methyl-N-(1-(naphthalen-1-yl)cyclopropyl)benzamide] as the molecule, how does the IC50 read?
The IC50 was less than 100 nM.

Which IC50 does the source give for Cc1ccc(OCC(N)=O)cc1C(=O)NC1(c2cccc3ccccc23)CC1 [Compound 285, 5-(2-Amino-2-oxoethoxy)-2-methyl-N-(1-(naphthalen-1-yl)cyclopropyl)benzamide] here?
Its IC50 is 100 to 1000 nM.

With COCC(N)COc1ccc(C)c(C(=O)NC2(c3cccc4ccccc34)CC2)c1 (stereo not shown) [Compound 400, 5-(2-Amino-3-methoxypropoxy)-2-methyl-N-(1-(naphthalen-1-yl)cyclopropyl)benzamide] as the molecule, how does the IC50 read?
Its IC50 is less than 100 nM.

With Cc1ccc(OCC23CCCN2CCC3)cc1C(=O)NC1(c2cccc3ccccc23)CC1 [Compound 376, 5-((Hexahydro-1H-pyrrolizin-7a-yl)methoxy)-2-methyl-N-(1-(naphthalen-1-yl)cyclopropyl)benzamide] as the molecule, how does the IC50 read?
The IC50 was less than 100 nM.

How did the IC50 turn out when Cc1ccc(OC2CN(Cc3ccccc3)C(C)(C)C2)cc1C(=O)NC1(c2cccc3ccccc23)CC1 (stereo not shown) [Compound 491, 5-((1-benzyl-5,5-dimethylpyrrolidin-3-yl)oxy)-2-methyl-N-(1-(naphthalen-1-yl)cyclopropyl)benzamide] was run?
Its IC50 is 100 to 1000 nM.

How did the IC50 turn out when Cc1ccc(OCCN(C)C)cc1C(=O)NC1(c2cccc3[nH]c4ccccc4c23)CC1 [Compound 415, N-(1-(9H-Carbazol-4-yl)cyclopropyl)-5-(2-(dimethylamino)ethoxy)-2-methylbenzamide] was run?
Its IC50 is 100 to 1000 nM.

With C=Cc1cc(C2(NC(=O)c3cc(OC45CCCN(CCC4)C5)ccc3C)CC2)c2cccnc2c1 [Compound 749, 5-(1-Azabicyclo[3.3.1]nonan-5-yloxy)-2-methyl-N-(1-(7-vinylquinolin-5-yl)cyclopropyl)benzamide] as the molecule, how does the IC50 read?
The IC50 was less than 100 nM.

Which IC50 does the source give for Cc1cc(C2(NC(=O)c3cc(OCCN(C)C)ccc3C)CC2)c2ccccc2c1 [Compound 401, 5-(2-(Dimethylamino)ethoxy)-2-methyl-N-(1-(3-methylnaphthalen-1-yl)cyclopropyl)benzamide] here?
Its IC50 is less than 100 nM.

Cc1ccc(OC[C@@H]2CCN2C)cc1C(=O)NC1(c2cc(Cl)nc3cc(F)ccc23)CC1 [Compound 586, (S)-N-(1-(2-Chloro-7-fluoroquinolin-4-yl)cyclopropyl)-2-methyl-5-((1-methylazetidin-2-yl)methoxy)benzamide] was tested. Which IC50 did it give?
Its IC50 is less than 100 nM.

Cc1cc2cc(CN)[nH]c2cc1C(=O)NC1(c2ccccc2)CC1 [Compound 246, 2-(Aminomethyl)-5-methyl-N-(1-phenylcyclopropyl)-1H-indole-6-carboxamide] was tested. Which IC50 did it give?
The IC50 was greater than 5000 nM.

With Cc1cc2cc(CN(C)C)n(CO)c2cc1C(=O)N[C@H](C)c1cccc2ccccc12 [Compound 192, (R)-2-((Dimethylamino)methyl)-1-(hydroxymethyl)-5-methyl-N-(1-(naphthalen-1-yl)ethyl)-1H-indole-6-carboxamide] as the molecule, how does the IC50 read?
The IC50 was 100 to 1000 nM.

With Cc1ccc(OCC2(C)CCN2C)cc1C(=O)NC1(c2cccc3ccccc23)CC1 (stereo not shown) [Compound 404, 5-((1,2-Dimethylazetidin-2-yl)methoxy)-2-methyl-N-(1-(naphthalen-1-yl)cyclopropyl)benzamide] as the molecule, how does the IC50 read?
Its IC50 is less than 100 nM.

How did the IC50 turn out when Cc1ccc(OC2CCCN(C)C2)cc1C(=O)NC1(c2cccc3ccccc23)CC1 (stereo not shown) [Compound 289, 2-Methyl-5-((1-methylpiperidin-3-yl)oxy)-N-(1-(naphthalen-1-yl)cyclopropyl)benzamide] was run?
Its IC50 is 100 to 1000 nM.

With COC(=O)CCc1ccc(C)c(C(=O)NC2(c3cccc4ccccc34)CC2)c1 [Compound 431, Methyl 3-(4-methyl-3-((1-(naphthalen-1-yl)cyclopropyl)carbamoyl)phenyl) propanoate] as the molecule, how does the IC50 read?
The IC50 was 100 to 1000 nM.
